Results on 10 compounds are retold here after patent US20230134986A1, “GLUCOSE TRIPTOLIDE CONJUGATES AND USES THEREOF” (The Johns Hopkins University, priority 2020, published 2023).

Structures are written as SMILES.

Usually IC50 stands for the midpoint of a concentration-inhibition curve.

In one data set the test system is HEK 293T cells. Put plainly: HEK293T cell proliferation assay ([3H]-thymidine incorporation). The class given is cell-based, human. To be noted: Homo sapiens; anti-proliferative activity, HEK 293T cells, 24 h drug exposure; read-out: IC50 ± SEM. The text has this: Cells and culture conditions. Primary astrocytes (Lonza, Walkersville, Md.; ABM™ Basal Media with AGM™ SingleQuots™ Supplement Pack), fibroblast (ATCC; Fibroblast Basal Medium (ATCC© PCS-201-030™) with Fibroblast Growth Kit-Serum-free (ATCC© PCS-201-040™)), airway epithelial cell (ATCC; Airway Epithelial Cell Basal Medium (ATCC© PCS-300-030™) with Bronchial Epithelial Cell Growth Kit (ATCC© PCS-300-040™)), renal proximal tubule (ATCC; Renal Epithelial Cell Basal Medium (ATCC© PCS-400-030™) with Renal Epithelial Cell Growth Kit (ATCC© PCS-400-040™)), prostate epithelial cell (Lonza; PrEGM™ BulletKit™) and mammary epithelial cell (Lonza; MEBM™ BulletKit™) were kept in a humidified incubator at 37° C. adjusted to 5% CO2. Prostate (PC3, LNCaP, DU-145), breast (MDA-MB-231, MDA-MB-453, SK-BR-3), head and neck (A253, Detroit 562, SCC-25), melanoma (SK-Mel-3, SK-Mel-1, RPMI-7951), pancreatic (CfPAC-1, BxPC3, SW1990), lung (A549, NCI-H1299, NCI-H1437) and liver (SNU-475, SK-HEP-1, SNU-387) cancer cell lines were obtained from ATCC and cultured in their respective media (prostate cells: RPMI-1640, MDA-MB-231: RPMI-1640, MDA-MB-453: Leibovitz's L-15, SK-BR-3: McCoy's 5a, A253: McCoy's 5a, Detroit 562: EMEM, SCC-25: DMEM, SK-Mel-3: McCoy's 5a, SK-Mel-1: EMEM, RPMI-7951: EMEM), CfPAC-1: IMDM, BxPC3: RPMI-1640, SW1990: Leibovitz's L-15), A549: F-12K, NCI-H1299: RPMI-1640, NCI-H1437: RPMI-1640, SNU-475: RPMI-1640, SK-HEP-1: EMEM, SNU-387: RPMI-1640. All media were supplemented with 10% (vol/vol) filtered fetal bovine serum (FBS, Invitrogen, Carlsbad, Calif.), 1% penicillin/streptomycin (Invitrogen) and maintained in a humidified incubator at 37° C. with 5% CO2 except for MDA-MB-453 and SW1990 grown at 37° C. without CO2 control. Wild type (ATCC) and C342T XPB knock-in cells (named T7115) of Human Embryonic Kidney 293T (HEK293T), HeLa (ATCC) were cultured in DMEM (GIBCO) with 10% (vol/vol) filtered fetal bovine serum (FBS, Invitrogen, Carlsbad, Calif.), 1% penicillin/streptomycin (Invitrogen).
(§1) Proliferation and viability assays. [^3H]-thymidine incorporation. HEK293T cells (10,000 cells/well) were seeded into 96-well plates then cultured in DMEM plus 10% FBS and 1% penicillin/streptomycin at 37° C. with 5% CO2 overnight. Drugs were added at indicated concentrations and incubation was continued for an additional 24 h. For hypoxia, PC3 (5,000 cells/well) were exposed to 1% O2 (Airgas) in a humidified hypoxia chamber (Billups-Rothenberg) in 37° C. for 48 h prior to drug exposure for 48 h. Treated cells were then pulsed using an aliquot of 1 μCi of [^3H]-thymidine (Perkin Elmer) per well for an additional 6 h. Radiolabelled cells were harvested onto a printed Filtermat A glass fiber filter (Perkin Elmer) using a Tomtec Harvester 96 Mach III M. Betaplate Scint (Perkin Elmer) scintillation fluid was added to radiolabelled filters followed by scintillation counting on Microbeta2 LumiJET Microplate Counter (Perkin Elmer).
(Dividing cells build labelled thymidine or BrdU into new DNA.)

The subject of the next data set is PC3 cells. Put plainly: PC3 proliferation under hypoxia or normoxia ([3H]-thymidine incorporation). The class given is cell-based, human. The note with it: hypoxia versus normoxia. How it is done: as §1
The conditions of data set [1]: cited from earlier work.
Where [2] appears, read: lethal case dosed with 18 mg/m2 F60008.

As to `CC(C)[C@]12O[C@H]1[C@@H]1O[C@]13[C@]1(O[C@H]1C[C@H]1C4=C(CC[C@@]13C)C(=O)OC4)[C@@H]2OC(=O)CCCC(=O)O[C@@H]1OC(CO)[C@@H](O)C(O)C1O` (stereo partly shown) [Compound 6], the IC50 in the data set on HEK 293T cells stood at 1134 ± 1.15 nM.

In the case of `CC(C)[C@]12O[C@H]1[C@@H]1O[C@]13[C@]1(O[C@H]1C[C@H]1C4=C(CC[C@@]13C)C(=O)OC4)[C@@H]2OC(=O)CCCC(=O)O[C@H]1OC(CO)[C@@H](O)C(O)C1O` (stereo partly shown) [Compound 7], in the data set with HEK 293T cells, the IC50 amounted to 735 ± 1.11 nM. The same measure, in the same setting: in the case of `CO[C@H]1OC(COC(=O)CCC(=O)O[C@@H]2[C@@]3(C(C)C)O[C@H]3[C@@H]3O[C@]34[C@]23O[C@H]3C[C@H]2C3=C(CC[C@@]24C)C(=O)OC3)[C@@H](O)C(O)C1O` (stereo partly shown) [Compound 9] it was 395 ± 0.523 nM; in that of `CC(C)[C@]12O[C@H]1[C@@H]1O[C@]13[C@]1(O[C@H]1C[C@H]1C4=C(CC[C@@]13C)C(=O)OC4)[C@@H]2OC(=O)CCC(=O)OCC1OC(O)C(O)C(O)[C@@H]1O` (stereo partly shown) [Compound 8], 244 ± 0.81 nM. In the case of `COc1cccc2c1C(=O)c1c(O)c3c(c(O)c1C2=O)C[C@@](O)(C(=O)CO)C[C@@H]3O[C@H]1C[C@H](N)[C@H](O)[C@H](C)O1` [doxorubicin], in the data set on PC3 cells, the “change of potency under hypoxia” value is reported as “decreased”. For `CC(C)[C@]12O[C@H]1[C@@H]1O[C@]13[C@]1(O[C@H]1C[C@H]1C4=C(CC[C@@]13C)C(=O)OC4)[C@@H]2OC(=O)CC(C)(C)C(=O)O[C@@H]1OC(CO)[C@@H](O)C(O)C1O` (stereo partly shown) [Compound 2], the IC50 in the data set on HEK 293T cells came to 3305 ± 0.98 nM. Same read-out and setting: next, `CC(C)[C@]12O[C@H]1[C@@H]1O[C@]13[C@]1(O[C@H]1C[C@H]1C4=C(CC[C@@]13C)C(=O)OC4)[C@@H]2OC(=O)CC(C)(C)C(=O)O[C@H]1OC(CO)[C@@H](O)C(O)C1O` (stereo partly shown) [Compound 3]: 999 ± 0.217 nM. On the same count and under the same terms, next, `CC(C)[C@]12O[C@H]1[C@@H]1O[C@]13[C@]1(O[C@H]1C[C@H]1C4=C(CC[C@@]13C)C(=O)OC4)[C@@H]2OC(=O)c1ccccc1C(=O)O[C@H]1OC(CO)[C@@H](O)C(O)C1O` (stereo partly shown) [Compound 5]: 6667 ± 2.03 nM. For the compound `CC(C)C12OC1C1OC13C1(C)CCC4=C(COC4=O)C1CC1OC13C2OC(=O)CCC(=O)O` (stereo not shown) [Compound F60008, triptolide-succinate], the lethality in patients result in data set [1] (administered with <12 mg/m^2 F60008) is given as “no lethality was observed in 18 of the 20 patients”. Also, the “lethality in early human clinical study” value in data set [1] (highest dose of therapy) is recorded as “lethal to two patients”. For the same compound, in data set [1] (setting [2]), the Maximum serum levels is 1,361 ng/mL and the “Maximum serum levels (molar)” value is recorded as ~2.96 mM. As to `CC(C)[C@]12O[C@H]1[C@@H]1O[C@]13[C@]1(O[C@H]1C[C@H]1C4=C(CC[C@@]13C)C(=O)OC4)[C@@H]2OC(=O)c1ccccc1C(=O)O[C@@H]1OC(CO)[C@@H](O)C(O)C1O` (stereo partly shown) [Compound 4], in the data set with HEK 293T cells, the IC50 stood at 5888 ± 1.19 nM.
